In patent publication EP1935887A1, “Heterocyclic substituted carbonyl derivatives and their use as dopamine D3 receptor ligands” (Aventis Pharmaceuticals Inc., priority 2001, dated 2002) one finds Ki data, which are given here for 57 compounds.

Where two headings read alike, the source gives them in different places.

The target in the assay is T1, Cloned Human Dopamine D3 Receptors (Homo sapiens, UniProt P35462).
T1 construct: expressed in transfected cells; membrane homogenate
As to the kind of experiment: [N-Methyl-3H]Spiroperidol binding to cloned human dopamine D3 receptors. Put shortly: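 [N-methyl-3H]spiroperidol binding is run in Tris buffer, pH 7.7. Receptor source is membranes of a stably transfected, high-expressing CHO clone carrying the human D3 gene, kept at -80°C in 10% DMSO.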

[1] abbreviates: the 16th table, read-out: D3 Ki.

T1 sequence (P35462 whole entry): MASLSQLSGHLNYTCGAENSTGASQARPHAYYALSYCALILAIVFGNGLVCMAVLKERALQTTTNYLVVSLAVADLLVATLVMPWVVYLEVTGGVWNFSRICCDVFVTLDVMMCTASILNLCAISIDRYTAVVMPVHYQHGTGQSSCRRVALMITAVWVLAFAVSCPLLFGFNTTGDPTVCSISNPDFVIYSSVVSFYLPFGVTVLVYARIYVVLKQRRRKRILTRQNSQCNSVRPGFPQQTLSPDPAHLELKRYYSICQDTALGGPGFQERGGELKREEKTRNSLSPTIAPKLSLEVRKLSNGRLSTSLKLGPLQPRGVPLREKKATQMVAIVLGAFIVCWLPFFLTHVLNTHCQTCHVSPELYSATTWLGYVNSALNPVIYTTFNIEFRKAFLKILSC

Take `CC[C@H]1CC[C@H](NC(=O)[C@@H]2C[C@H]2CN2CCN(c3ccc(Cl)c(Cl)c3)CC2)CC1` [compound 828393]: the Ki (read-out: d3Ki) was determined as 3.45 nM.

In the case of `O=C([C@@H]1C[C@H]1CN1CCC(c2noc3ccsc23)CC1)N1CCOCC1` [compound 829461], where the note is “read-out: D3 Ki”, the Ki stood at 306 nM. With `CN(CCc1ccccn1)C(=O)C1CC1CN1CCC(c2noc3ccsc23)CC1` (stereo not drawn) [compound 829593], the Ki (read-out: D3 Ki) was determined as 350 nM. As for `CCC1CCC(NC(=O)C2CC2CN2CCCN(c3ccc4c(C#N)n[nH]c4n3)CC2)CC1` (stereo not drawn) [compound 830122], where the note is “read-out: D3 Ki”, the Ki is 67.6 nM. In the case of `CCC1CCC(NC(=O)C2CC2CN2CCC(c3nn(-c4ccc(C(F)(F)F)cc4)c4ccccc34)CC2)CC1` (stereo not drawn) [compound 830133], the Ki (D3 Ki (nM)) amounted to 176 nM.

For `O=C(NCCCN1CCOCC1)[C@@H]1C[C@H]1CN1CCC(c2noc3ccsc23)CC1` [compound 831046], the Ki (read-out: D3 Ki) stood at 15.5 nM. Consider `CN(C)CCCNC(=O)[C@@H]1C[C@H]1CN1CCC(c2noc3ccsc23)CC1` [compound 831048], for which, where the note is “read-out: D3 Ki”, the Ki came out at 11.3 nM. Consider `C[C@H]1CC[C@H](NC(=O)[C@@H]2C[C@H]2CN2CCN(c3noc4ccsc34)CC2)CC1` [compound 831083], for which, for the setting “D3 Ki (nM)”, the Ki is 3.2 nM.

In the case of `O=C(NCCCc1ccncc1)[C@@H]1C[C@H]1CN1CCC(c2noc3ccsc23)CC1` [compound 831197], the Ki (read-out: D3 Ki) came out at 4.17 nM. Take `O=C(NCCCn1cccn1)[C@@H]1C[C@H]1CN1CCC(c2noc3ccsc23)CC1` [compound 831273]: the Ki (read-out: D3 Ki) came out at 68.6 nM. Consider `COc1ccc2[nH]cc(CCNC(=O)[C@@H]3C[C@H]3CN3CCC(c4noc5ccsc45)CC3)c2c1` [compound 831275], for which the Ki (read-out: D3 Ki) was 5.15 nM.

In the case of `COc1ccc2c(CCNC(=O)[C@@H]3C[C@H]3CN3CCC(c4noc5ccsc45)CC3)c[nH]c2c1` [compound 831276], under “read-out: D3 Ki”, the Ki turned out to be 3.85 nM. Under “D3 Ki (nM)”, `O=C(NCCCn1ccnc1)[C@@H]1C[C@H]1CN1CCC(c2nn(-c3ccc(C(F)(F)F)cc3)c3ccccc23)CC1` [compound 831311] gave a Ki of 38.7 nM. Turning to `O=C(NCCCc1ccccc1)[C@@H]1C[C@H]1CN1CCC(c2cc3ccccc3s2)CC1` [compound 831489], for the setting “read-out: D3 Ki”, the Ki stood at 16.9 nM. Consider `O=C(NCCCn1ccnc1)[C@@H]1C[C@H]1CN1CCN(c2noc3ccsc23)CC1` [compound 831493, 2R-(4-Thieno[2,3-d]isoxazol-3-yl-piperazin-1-ylmethyl)-1 R-cyclopropanecarboxylic acid (3-imidazol-1-yl-propyl)-amide], for which the Ki (read-out: D3 Ki) turned out to be 4.95 nM. For the compound `O=C(NCCCc1ccccc1)[C@@H]1C[C@H]1CN1CCN(c2noc3ccsc23)CC1` [compound 831494], the Ki (read-out: D3 Ki) came to 28.3 nM.

`Cn1nc(N2CCN(CC3CC3C(=O)NCCCn3ccnc3)CC2)c2sccc21` (stereo not drawn) [compound 831673] yielded a Ki (D3 Ki (nM)) of 23.5 nM.

Where the note is “D3 Ki (nM)”, `O=C(NC1CCN(CC2CCCCC2)CC1)C1CC1CN1CCC(c2noc3ccsc23)CC1` (stereo not drawn) [compound 831823] gave a Ki of 2.37 nM. As to `COc1cccc2c(C3CCN(C[C@@H]4C[C@H]4C(=O)N4CCC(Oc5ccc(F)cc5)CC4)CC3)noc12` [compound 831878], the Ki (read-out: D3 Ki) was 189 nM. Consider `COc1ccc2c(c1)c(N1CCN(C[C@@H]3C[C@H]3C(=O)N[C@H]3CC[C@H](O)CC3)CC1)nn2-c1ccc(C(F)(F)F)cc1` [compound 831949], for which, under “read-out: D3 Ki”, the Ki came out at 29 nM. For `O=C(NC1CCC(O)CC1)C1CC1CN1CCN(c2noc3ccsc23)CC1` (stereo not drawn) [compound 831955], the Ki (read-out: D3 Ki) worked out at 47.3 nM. Take `COc1ccccc1CN1CCC(NC(=O)C2CC2CN2CCC(c3noc4ccsc34)CC2)CC1` (stereo not drawn) [compound 831991]: the Ki (D3 Ki (nM)) stood at 0.722 nM.

As to `O=C(C1CC1CN1CCC(c2noc3ccsc23)CC1)N1CCN(CCc2ccccn2)CC1` (stereo not drawn) [compound 832001], under “read-out: D3 Ki”, the Ki came to 157 nM. With `Cc1nc(N)sc1CCNC(=O)C1CC1CN1CCC(c2noc3ccsc23)CC1` (stereo not drawn) [compound 832045], where the note is “read-out: D3 Ki”, the Ki was determined as 22 nM. As to `O=C(C1CC1CN1CCC(c2noc3ccsc23)CC1)N1CCN(CCC2CCCCC2)CC1` (stereo not drawn) [compound 832058], the Ki (read-out: D3 Ki) came out at 24.2 nM.

On to `CC1CCC(NC(=O)C2CC2CN2CCC(c3noc4c(C(F)(F)F)cccc34)CC2)CC1` (stereo not drawn) [compound 832203], for which the Ki (read-out: D3 Ki) amounted to 4.76 nM. For the setting “D3 Ki (nM)”, `CN1CCCC1CCNC(=O)C1CC1CN1CCN(c2csc3cc(C(F)(F)F)ccc23)CC1` (stereo not drawn) [compound 832217] displayed a Ki of 44.1 nM.

`O=C(NCCCn1ccnc1)C1(CCN2CCN(c3csc4cc(C(F)(F)F)ccc34)CC2)CC1` [compound 832231, 1-{2-[4-(6-Trifluoromethyl-benzo[b]thiophen-3-yl)-piperazin-1-yl]-ethyl}-cyclopropanecarboxylic acid (3-imidazol-1-yl-propyl)-amide]: the Ki under setting [1] was 6.93 nM. Regarding `O=C(NCCCN1CCOCC1)[C@@H]1C[C@H]1CN1CCC(c2noc3c(C(F)(F)F)cccc23)CC1` [compound 832273], the Ki (read-out: D3 Ki) came to 205 nM. As to `O=C(NC1CCN(Cc2ccc(F)c(F)c2)CC1)C1CC1CN1CCC(c2noc3ccsc23)CC1` (stereo not drawn) [compound 832342], the Ki (D3 Ki (nM)) turned out to be 0.077 nM.

`O=C(NC1CCN(Cc2cc(F)ccc2F)CC1)C1CC1CN1CCC(c2noc3ccsc23)CC1` (stereo not drawn) [compound 832345]: for the setting “D3 Ki (nM)”, the Ki came to 1.46 nM. Same read-out and setting: as for `O=C(NC1CCN(Cc2ccc(C(F)(F)F)cc2)CC1)C1CC1CN1CCC(c2noc3ccsc23)CC1` (stereo not drawn) [compound 832349], the figure is 0.843 nM; as for `O=C(C1CC1CN1CCC(c2noc3ccsc23)CC1)N1CCC(Nc2ccc(Cl)cc2)CC1` (stereo not drawn) [compound 832395], 30.2 nM. For the compound `O=C(NC1CCNCC1)[C@@H]1C[C@H]1CN1CCN(c2csc3cc(C(F)(F)F)ccc23)CC1` [compound 832502], the Ki (read-out: D3 Ki) came to 2.67 nM.

With `Cn1nc(C2CCN(C[C@@H]3C[C@H]3C(=O)NCCCn3ccnc3)CC2)c2cccc(C(F)(F)F)c21` [compound 832654, 2R-[4-(1-Methyl-7-trifluoromethyl-1 H-indazol-3-yl)-piperidin-1-ylmethyl]-1 R-cycloproanecarboxylic acid (3-imidazol-1-yl-propyl)-amide], the Ki (read-out: D3 Ki) was found to be 4.72 nM. Turning to `O=C(NC1CCN(Cc2cccc(F)c2)CC1)[C@@H]1C[C@H]1CN1CCC(c2noc3ccsc23)CC1` [compound 832727], the Ki (D3 Ki (nM)) was 1.19 nM. `O=C(NC1CCN(CC2CC2)CC1)[C@@H]1C[C@H]1CN1CCN(c2csc3cc(C(F)(F)F)ccc23)CC1` [compound 832734]: the Ki (read-out: D3 Ki) turned out to be 9.85 nM. Still for that read-out and setting: in the case of `O=C(NC1CCN(Cc2cccc(F)c2)CC1)[C@@H]1C[C@H]1CN1CCN(c2csc3cc(C(F)(F)F)ccc23)CC1` [compound 832736] it was 2.74 nM. As to `O=C(NC1CCN(Cc2ccc(F)cc2)CC1)[C@@H]1C[C@H]1CN1CCN(c2csc3cc(C(F)(F)F)ccc23)CC1` [compound 832738], the Ki (read-out: D3 Ki) came to 3.26 nM.

With `Cn1nc(C2CCN(C[C@@H]3C[C@H]3C(=O)NCCCN3CCCCC3)CC2)c2cccc(C(F)(F)F)c21` [compound 833090], for the setting “D3 Ki (nM)”, the Ki came to 41.8 nM.

Turning to `COc1ccc2c(c1)c(N1CCN(C[C@@H]3C[C@H]3C(=O)NCCCN3CCN(C)CC3)CC1)nn2C` [compound 833121], for the setting “read-out: D3 Ki”, the Ki is 26.5 nM. `O=C([C@@H]1C[C@H]1CN1CCC(c2noc3ccsc23)CC1)N1CCN(Cc2ccc(Cl)cc2)CC1` [compound 833128] yielded a Ki (D3 Ki (nM)) of 28.7 nM. `O=C(NC1CCN(Cc2ccc(F)c(F)c2)CC1)[C@@H]1C[C@H]1CN1CCC(c2noc3ccsc23)CC1` [compound 833165]: under “read-out: D3 Ki”, the Ki came to 1.07 nM.

As to `Cn1nc(C2CCN(C[C@@H]3C[C@H]3C(=O)N[C@H]3CC[C@H](C)CC3)CC2)c2cccc(C(F)(F)F)c21` [compound 833305], the Ki (read-out: D3 Ki) was 8.81 nM. `COc1c(F)ccc2c(C3CCN(CCC4(C(=O)N[C@H]5CC[C@H](C)CC5)CC4)CC3)noc12` [compound 833330]: the Ki under setting [1] was 72.7 nM. With `CC(C)(C)OC(=O)N1CCC(CNC(=O)C2CC2CN2CCN(c3csc4cc(C(F)(F)F)ccc34)CC2)C1` (stereo not drawn) [compound 833625], where the note is “read-out: D3 Ki”, the Ki was determined as 22.2 nM.

`COc1ccc2c(c1)c(N1CCN(C[C@@H]3C[C@H]3C(=O)N3CCC(CCN4CCCC4)CC3)CC1)nn2C` [compound 833628]: for the setting “read-out: D3 Ki”, the Ki worked out at 95.8 nM.

Take `COc1ccc2c(c1)c(N1CCN(C[C@@H]3C[C@H]3C(=O)NC[C@H]3CCN(C(=O)OC(C)(C)C)C3)CC1)nn2C` [compound 833630]: where the note is “read-out: D3 Ki”, the Ki was 52.1 nM.

Regarding `COc1ccc2c(c1)c(N1CCN(C[C@@H]3C[C@H]3C(=O)NCCCN(C)C)CC1)nn2C` [compound 833631], where the note is “read-out: D3 Ki”, the Ki is 31.3 nM.

As to `C[C@H]1CC[C@H](NC(=O)[C@@H]2C[C@H]2CN2CCC(c3csc4c(C(F)(F)F)cccc34)CC2)CC1` [compound 833690, 2R-[4-(7-Trifluoromethyl-benzo[b]thiophen-3-yl)-piperidin-1-ylmethyl]-1R-cyclopropanecarboxylic acid (trans-4-methyl-cyclohexyl)-amide], where the note is “read-out: D3 Ki”, the Ki stood at 7.97 nM. As for `C[C@H]1CC[C@H](NC(=O)[C@@H]2C[C@H]2CN2CCC(c3nc4cc(Cl)ccc4o3)CC2)CC1` [compound 833692], the Ki (read-out: D3 Ki) stood at 72.9 nM.

Compound `O=C(NC1CCN(C(=O)Nc2ccc(F)cc2)CC1)[C@@H]1C[C@H]1CN1CCC(c2noc3ccsc23)CC1` [compound 833715] registered a Ki (D3 Ki (nM)) of 5.7 nM.

Compound `Cn1nc(C2CCN(C[C@@H]3C[C@H]3C(=O)N[C@H]3CC[C@H](C)CC3)CC2)c2cc(C(F)(F)F)ccc21` [compound 833769] showed a Ki (D3 Ki (nM)) of 1.63 nM. As to `O=C(NCCCn1ccnc1)[C@@H]1C[C@H]1CN1CCN(c2csc3ncccc23)CC1` [compound 833821, 2R-(4-Thieno[2,3-b]pyridin-3-yl-piperazin-1-ylmethyl)-1R-cyclopropanecarboxylic acid (3-imidazol-1-yl-propyl)-amide], the Ki (read-out: D3 Ki) was 6.91 nM.

In the case of `Cn1nc(N2CCN(C[C@@H]3C[C@H]3C(=O)NCCCn3ccnc3)CC2)c2ccccc21` [compound 833822], the Ki (read-out: D3 Ki) stood at 0.64 nM. For the compound `O=C(NCCCn1ccnc1)[C@@H]1C[C@H]1CN1CCN(c2nn(-c3ccc(F)cc3)c3ccccc23)CC1` [compound 833823], the Ki (read-out: D3 Ki) was determined as 0.637 nM.

In the case of `C[C@H]1CC[C@H](NC(=O)[C@@H]2C[C@H]2CN2CCN(c3nn(-c4cccc(F)c4)c4ccsc34)CC2)CC1` [compound 833856], where the note is “read-out: D3 Ki”, the Ki came to 3.01 nM.
